The text below walks through data of US7378495B2, “PTH-rP related peptide cancer therapeutics” (Pevion Biotech, Ltd., priority 2002, dated 2008).

The conditions of experiment [1]: 0.1 mg sc. in the dorsal neck, after 6 hours, three mice.
For experiment [2], the target named is HLA-A(*)02.01 molecules (Homo sapiens, UniProt P04439, D140Y/D185E/D98H/E176V/E277Q/G131W/G231S/I119V/I121R/I166T/I218V/L300P/L318F/N151K/N90K/P208A/P217A/Q86G/Q94H/R138H/R169H/T345S). Kind of experiment: T2-A2 HLA up-regulation test (HLA-A2.1 class I up-regulation, peptide binding). As to conditions: positive cut-off 287.116. The method, then:
T2-A2, HLA up-regulation test: binding of the PTR-2 and PTR-4 peptides to HLA-A(*)02.01 molecules was evaluated by means of flow cytometry using T2 cells and the method described by Nijman et al. In this assay, increased stability (the accumulation of HLA-A(*)02.01 molecules on the surface of T2 cells as a consequence of peptide binding) is measured in terms of the increased binding of the antibody directed against HLA-A(*)02.01. Briefly, 10^6 T2 cells in serum-free IMDM were incubated overnight with escalating concentrations (0, 5, 25 and 50 μg/ml) of the PTR peptides in 24-well culture plates at 37° C. in an atmosphere containing 5% CO2. The cells were then washed two times with DPBS, and subsequently incubated for one hour with an anti-HLA-A(*)02.01 (A2.69) specific monoclonal antibody (A2.69, #189HA-1; One Lambda, Inc., Canoga Park, Calif.), using 10 μl of the recommended dilution per 10^6 cells. UPC-10 (Cappel/Organon Teknika Corp) was used as an isotype control. The cells were again washed two times with DPBS, incubated with 100 μl of a 1:100 dilution of fluorescein isothiocyanate (FITC)-labeled anti-mouse IgG (Becton Dickinson Corp.), and analyzed by means of FACScan and single-color analysis. The cells were kept at 4° C. during all of the manipulations unless otherwise stated.
Peptide selection and HLA-A(*)02.01 binding: In order to test the immunogenicity of PTH-rP protein and test possible tolerance of human T cell repertoire specific for it, the PTH-rP molecules were screened with the “Parker” algorithm (BIMAS) in order to predict peptides having high theoretical HLA-A(*)02.01 binding motifs. The functional binding of the two peptides to HLA-A(*)02.01 molecules was tested in vitro by means of the T2 test. PTH-rP peptides with similar or overlapping amino acid homology to the analogue sequences of parathyroid hormone (PTH) were cut out of the screening. The peptide sequences included in the first 36 amino acids (pro-peptide) were ignored although theoretically predicted with higher affinity for the HLA-A(*)02.01 molecule. […]

Marks after values point to notes of the source that are not given here. Bridges are numbered along the chain shown (N, C = ends). Where no end group is shown, it is not given here.

Turning to “Human synthetic thyreocalcitonin: Sigma-Aldrich # T3535, positive control capable to induce hypocalcemia (CGNLSTCMLGTYTQDFNKFHTFPQTAIGVGAP-NH2; disulfide 1-7; ends not checked; UniProt P01258 85-116, looked up)”, the “Serum Ca (hypocalcemia induced by positive control)” value in experiment [1] was 0.64 ± 0.645 mmol/L.

As to YLSGANLNL [CAP-1], the T2 binding in experiment [2] (peptide 5 μg/ml) is given as 240^d relative fluorescence values; in experiment [2] (peptide 25 μg/ml) it was 352^e relative fluorescence values; in experiment [2] (peptide 50 μg/ml) it was 502.9^f relative fluorescence values.
